Experimental data taken from PMC10743653, “Combined In Silico and In Vitro Analyses to Assess the Anticancer Potential of Thiazolidinedione–Thiosemicarbazone Hybrid Molecules” (International Journal of Molecular Sciences, 2023).

What was measured:
HepG2 cells = test: MTT assay, HepG2; assay type: cell-based, human; settings: for IC50: Homo sapiens, HepG2, MTT, 24 h treatment, mean ± SD; for SI (selectivity index): IC50 CCD 841 CoTr divided by IC50 HepG2
Method: (§1) The effects of TZD–TSCs 2–5 on the cellular viability of a panel of cell lines were investigated through an 3-(4,5-dimethylthiazol-2-yl)-2,5-diphenyl-2H-tetrazolium bromide (MTT) assay, following a 24 h treatment with the compounds. The panel consisted of three solid tumor cells: T98G (glioblastoma multiforme), HepG2 (hepatocellular carcinoma, epithelial), and HT29 (colon adenocarcinoma, epithelial), as well as noncancerous cells CCD 841 CoTr (normal colon, epithelial).
(§2) Primary single dose screenings of TZD–TSCs 2–5 were performed at a concentration of 200 μg/mL, and those that elicited a greater than 80% inhibition of cell proliferation were analyzed at several concentrations, to find their half-maximal inhibitory concentration (IC50). The IC50 values, reported as the mean ± SD in Table 2, indicate the concentration of the tested compound that inhibits the growth/viability of the cancer cell population by 50%. In this specific case of an MTT assay, which measures the activity of mitochondrial dehydrogenases (as an indicator of cell viability), the IC50 values stand for the concentration that inhibits the metabolic activity of cells by 50%.
(§3) Human colon adenocarcinoma cells, HT29 (ATCC no. HTB-38), derived from a grade I tumor, were cultured in roswell park memorial institute Medium (RPMI) 1640 medium, supplemented with 10% fetal calf serum (FCS) (GibcoTM, Paisley, UK) and antibiotics (100 U/mL penicillin and 100 μg/mL streptomycin) (Sigma, St. Louis, MO), at 37 °C in a humidified atmosphere with 5% CO2. Human normal colon epithelial cells, CCD 841 CoTr (ATCC no. CRL-1807), were cultured in RPMI 1640 + dulbecco’s modified eagle medium (DMEM) (1:1) medium (Sigma, St. Louis, MO), supplemented with 10% FCS and antibiotics, at 34 °C in a 5% CO2/95% air atmosphere. Human glioblastoma T98G cells were cultured in Dulbecco’s Modified Eagle’s Medium (DMEM) (Sigma Aldrich, St. Louis, MO, USA), supplemented with 10% fetal bovine serum (FBS), penicillin (100 U/mL), and streptomycin (100 μg/mL). Human hepatocellular carcinoma cells, HepG2, were maintained in Eagle’s Minimum Essential Medium, supplemented with 10% FBS, penicillin (100 U/mL), and streptomycin (100 μg/mL).
(§4) After 24 h of incubation of the cells with the tested compounds in 100 μL of culture medium, MTT solution (5 mg/mL, 25 μL/well) was added and incubated for an additional 3 h. The purple crystals of formazan which formed in the medium were solubilized overnight in 10% sodium dodecyl sulphate (SDS) in a 0.01 M HCl mixture. The product was quantified spectrophotometrically by measuring its absorbance at 570 nm using an Emax Microplate Reader (Molecular Devices Corporation, Menlo Park, CA, USA).

T98G cells = test: MTT assay, T98G; assay type: cell-based, human; settings: for IC50: Homo sapiens, T98G, MTT, 24 h treatment, mean ± SD; for SI (selectivity index): IC50 CCD 841 CoTr divided by IC50 T98G
Method: as §1, §2, §3, §4

HT29 cells [1] = test: MTT assay, HT29; assay type: cell-based, human; settings: for IC50: Homo sapiens, HT-29, HT29, MTT, 24 h treatment, mean ± SD; for SI (selectivity index): IC50 CCD 841 CoTr divided by IC50 HT29
Method: as §1, §2, §3, §4

[2] = DPPH free radical scavenging test
From the text: (§5) Antioxidant activity is a complex procedure, usually happening through several multiple or predominant chemical mechanisms (i.e., hydrogen atom transfer (HAT), single electron transfer (SET), and the ability to chelate transition metals), and it is influenced by many factors, which cannot be fully described with one single method. Therefore, it is important to perform more than one type of measurement to take into account the various mechanisms of antioxidant action. In this study, to assess the antioxidant activity of TZD–TSCs 2–5, two complementary tests were used: a DPPH (2,2-diphenyl-1-picrylhydrazyl) free radical-scavenging ability assay, that detects the HAT and SET mechanisms, and a FRAP (ferric reducing antioxidant power) assay, that prefers the […] mechanism. The antioxidant powers of 2–5 were compared to standard antioxidants, such as the water-soluble synthetic analogue of vitamin E (Trolox) and ascorbic acid (vitamin C).
The free radical scavenging activity of […] was measured by the DPPH assay. Briefly, 100 μl of DPPH solution (0.2 mg/mL in ethanol) was added to 100 μL of the tested compound concentrations (25, 75, 150, and 200 μg/mL, respectively). Trolox, at increasing concentrations (1–50 μg/mL), was used as a standard. After 20 min of incubation at room temperature, the absorbances of the solutions were measured at 515 nm. The lower the absorbance, the higher the free radical scavenging activity of the compound. The activity of each compound was determined by comparing its absorbance with that of the standard.
The ability of the compounds to scavenge the DPPH radical was calculated by the following formula:DPPH scavenging effect (%) = [(Xcontrol − Xcompound/Xcontrol) × 100], where Xcontrol is the absorbance of the control and Xcompound is the absorbance in the presence of TZD-TSCs preparations.

CCD 841 CoTr cells [3] = test: Nitric oxide measurement (Griess), CCD 841 CoTr; assay type: cell-based, human; settings: 200 μg/mL
Method: (§6) Nitrate, i.e., a stable end product of NO, was measured in culture supernatants with a spectrophotometric method based on the Griess reaction. Culture supernatants were collected from the cell cultures treated with specific concentrations of the tested compounds (25, 75, 150, and 200 μg/mL, respectively). Briefly, 100 μL of the culture supernatant was placed in 96-well flat-bottomed plates in triplicate and incubated with 100 μL of Griess reagent (1% sulfanilamide/0.1% N-(1-naphthyl)ethylenediamine dihydrochloride) in 3% H3PO4 at room temperature for 10 min. The optical density was measured at 550 nm using a microplate reader. A standard curve was prepared using 0.5–25 μM sodium nitrite (NaNO2) for calibration.

HT29 cells [4] = test: Nitric oxide measurement (Griess), HT29; assay type: cell-based, human
Method: as §6

[5] = Ferric-reducing antioxidant power (FRAP) assay
From the text: as §5
Each compound concentration (25, 75, 150, and 200 μg/mL, respectively) was dissolved in Milli-Q water and mixed with an equal volume of 0.2 M sodium phosphate buffer (pH 6.6) and 1% potassium ferricyanide. The mixture was incubated for 30 min at 37 °C. Thereafter, 10% trichloroacetic acid (w/v) was added and the mixture was centrifuged at 1000 g for 5 min. One mL of the upper layer was mixed with an equal volume of Milli-Q water and 0.1% ferric chloride. The absorbance was read at 700 nm using an EL800 Universal Microplate Reader (BioTek Instruments, Winooski, VT, USA). Ascorbic acid (0–150 μg/mL) was used as a positive control.

CCD 841 CoTr cells [6] = test: MTT assay, normal colon epithelial cells; assay type: cell-based; settings: Homo sapiens, CCD 841 CoTr (noncancerous), 24 h treatment, mean ± SD
Method: as §1, §2, §3, §4

HDAC4 = test system: HDAC4; design: method as in PMID 34006099; settings: cited from earlier work
PPARγ = test system: PPARγ; design: method as in PMID 34006099; settings: cited from earlier work
CEM cells = test system: CEM cells; design: method as in PMID 34006099; settings: read-out: IC50, antiproliferative effects against CEM cells; cited from earlier work

| IC50 (HepG2 cells) | IC50 (HT29 cells [1]) | Structure (SMILES) | IC50 (T98G cells) | SI (selectivity index) (HepG2 cells) | DPPH reduction value corresponding to concentration of Trolox ([2]; compound at 25 μg/mL) | DPPH reduction value corresponding to concentration of Trolox ([2]; compound at 75 μg/mL) | DPPH reduction value corresponding to concentration of Trolox ([2]; compound at 150 μg/mL) | DPPH reduction value corresponding to concentration of Trolox ([2]; compound at 200 μg/mL) | SI (selectivity index) (T98G cells) | NO production, [NO2^−] (CCD 841 CoTr cells [3]) | NO production, [NO2^−] (HT29 cells [4]; HT29, 25 μg/mL) | SI (selectivity index) (HT29 cells [1]) | FRAP reduction value corresponding to concentration of ascorbic acid ([5]; compound at 25 μg/mL) | FRAP reduction value corresponding to concentration of ascorbic acid ([5]; compound at 75 μg/mL) | FRAP reduction value corresponding to concentration of ascorbic acid ([5]; compound at 150 μg/mL) | FRAP reduction value corresponding to concentration of ascorbic acid ([5]; compound at 200 μg/mL) | IC50 (CCD 841 CoTr cells [6]) | further results |
| --- | --- | --- | --- | --- | --- | --- | --- | --- | --- | --- | --- | --- | --- | --- | --- | --- | --- | --- |
| 61.9 ± 2.97 µM | 161 ± 8.51 µM | COc1cc([C@@H]2c3cc4c(cc3[C@@H](O[C@@H]3O[C@@H]5CO[C@@H](C)O[C@H]5[C@H](O)[C@H]3O)[C@H]3COC(=O)[C@H]23)OCO4)cc(OC)c1O [Etoposide, reference compound] | > 160 µM | – | – | – | – | – | – | – | – | – | – | – | – | – | – | – |
| 20.1 ± 1.19 µM | 117 ± 9.37 µM | O=C(C=C1SC(=O)NC1=O)Oc1cccc(C=NNC(=S)Nc2ccccc2Cl)c1 [TZD–TSC 4] | 42.4 ± 2.23 µM | 4.34 | 2.834 µg/mL | 6.381 µg/mL | 13.982 µg/mL | 17.638 µg/mL | 2.06 | 0.639 µM | 0.558 µM | 0.75 | 1.62 µg/mL | 5.95 µg/mL | 4.05 µg/mL | 5.41 µg/mL | 87.3 ± 5.06 µM | – |
| 13.9 ± 0.59 µM | 119 ± 10.7 µM | O=C(C=C1SC(=O)NC1=O)Oc1ccc(C=NNC(=S)Nc2ccc(Cl)cc2Cl)cc1 [TZD–TSC 5] | 93.6 ± 3.45 µM | 5.35 | 0.768 µg/mL | 2.689 µg/mL | 9.964 µg/mL | 15.177 µg/mL | 0.79 | 0.272 µM | ~ 0.272 μM | 0.62 | 2.70 µg/mL | 2.43 µg/mL | 4.59 µg/mL | 9.19 µg/mL | 74.2 ± 2.3 µM | NO production, [NO2^−] (HT29 cells [4]; HT29, 200 μg/mL): ~ 0.272 μM |
| – | – | O=C(COc1ccc2cc(/C=C3/SC(=O)NC3=O)ccc2c1)Nc1c(F)cc(F)cc1Br [compound 1] | – | – | – | – | – | – | – | – | – | – | – | – | – | – | – | Activity toward HDAC4 (HDAC4): low micromolar concentration; Activity toward PPARγ (PPARγ): low micromolar concentration; IC50 (CEM cells): 9.6 µM |
